Experiments:
[1] = Adverse events in BLOOM-DM, patients with type 2 diabetes (Table B); type: in vivo, human; conditions: 10 mg BID
Protocol: (§1) The safety of Compound 1 has been evaluated in three randomized, double-blind, placebo-controlled trials, one of 2 years duration (“BLOOM” trial) and two of 1 year duration (“BLOSSOM” and “BLOOM-DM” trials). A total of 3451 patients were exposed to Compound 1 10 mg twice daily for up to 1 year; 571 patients were exposed for up to 2 years; and an additional 896 patients were exposed to Compound 1 10 mg once daily for up to 1 year. The BLOOM-DM study included only patients with type 2 diabetes mellitus; BLOOM and BLOSSOM excluded patients with diabetes.
(§2) The most common adverse reactions for non-diabetic patients treated with Compound 1 compared to placebo were headache, upper respiratory tract infection, nasopharyngitis, dizziness, and nausea. The most common adverse reactions for diabetic patients were hypoglycemia, headache, back pain, nasopharyngitis, and nausea. Adverse events that were reported by ≥5% of patients and were more frequently reported by patients taking Compound 1 compared to placebo are summarized in Table A (BLOOM and BLOSSOM) and Table B (BLOOM DM).

in vivo [2] = conditions: male, Sprague-Dawley, rat, plasma, po, 24 mg/kg/day
in vivo [3] = conditions: male, SD, rat, plasma
Protocol: (§3) On Day 28, animals were placed in Culex® cages for automated blood collection. […] Analyte plasma concentrations were determined by LC/MS/MS. Noncompartmental PK analysis was performed using WinNonlin® (Pharsight®, Mountain View, Calif.) to determine t1/2, Cmaxss, Css and AUClast.

[4] = Phase 3 clinical trials of lorcaserin for weight management
[5] = continuous subcutaneous infusion 0.630 mg/kg/h, Day 28, mean
Protocol: as §3

[6] = Adverse events in BLOOM and BLOSSOM (Table A); type: in vivo, human; conditions: 10 mg BID, N = 3195
Protocol: as §1, §2

[7] = Clinical trial of a single oral dose under fed and fasted conditions; type: in vivo, human; conditions: single oral dose 10 mg
Protocol: A clinical trial was performed to evaluate the safety and pharmacokinetic profile of a single oral dose of Compound 1 (10 mg) administered to healthy male and female subjects aged 18 to 60 years (inclusive) under fed and fasted conditions. […] Cmax was reduced by approximately 10% in the fed compared to fasted state, but a lack of food effect was not proven. […] Compound 1 was generally well tolerated when dosed in the fasted state and after a high-fat breakfast. There were a higher number of adverse events when dosed in the fasted state, (18 compared to 6) including two moderate intensity (nausea and headache) and one severe (vomiting) intensity events occurring in a single subject.

[8] = Pharmacokinetics parameters from an open-label, single-dose, cross-over clinical study (GastroPlus input); type: in vivo; conditions: human, oral, 10 mg, clinical study in the fed and fasted state
Protocol: The GastroPlus™ software (Simulations Plus, Inc., Lancaster, Calif.) was used to simulate the pharmacokinetics of Compound 1 from immediate-release and modified-release tablets. The release profile follows first order release kinetics and T80% is approximately 8 hours. The lower limit was not defined. Pharmacokinetics parameters of Compound 1 were obtained from an open-label, single-dose, cross-over clinical study in the fed and fasted state. Input variables and default values for GastroPlus™ simulation were as follows

[9] = subcutaneous Alzet pump, 1 mg/kg/h for four days; mean
clinical = conditions: human, brain (lumbar cerebrospinal fluid measured) and plasma, oral, 10 mg
[10] = Safety in three randomized, double-blind, placebo-controlled trials (BLOOM, BLOSSOM, BLOOM-DM): discontinuation due to adverse reactions; type: in vivo, human
Protocol: as §1
The discontinuation rate due to adverse reaction was 7.1% for non-diabetic patients and 8.6% for patients with type 2 diabetes receiving Compound 1. The most common adverse reactions leading to discontinuation more often among Compound 1 treated patients than placebo were headache (1.3% vs. 0.8%), depression (0.9% vs. 0.5%) and dizziness (0.7% vs. 0.2%).

[11] = not told
[12] = phase 3 trial, after 12 months, ITT-LOCF

Structure (SMILES): C[C@H]1CNCCc2ccc(Cl)cc21 [Compound 1]
- Back pain, patients (%) [1]: (11.7) %
- Cough, patients (%) [1]: (8.2) %
- Dizziness, patients (%) [1]: (7.0) %
- Fatigue, patients (%) [1]: (7.4) %
- Gastroenteritis viral, patients (%) [1]: (7.0) %
- Headache, patients (%) [1]: (14.5) %
- Back pain, number of patients ([1]; N = 3195): 30
- Cough, number of patients ([1]; N = 3195): 21
- Dizziness, number of patients ([1]; N = 3195): 18
- Fatigue, number of patients ([1]; N = 3195): 19
- Gastroenteritis viral, number of patients ([1]; N = 3195): 18
- Headache, number of patients ([1]; N = 3195): 37
- Hypertension, number of patients ([1]; N = 3195): 13
- Hypertension, patients (%) ([1]; N = 3195): (5.1) %
- Hypoglycemia (including asymptomatic), number of patients ([1]; N = 3195): 75
- Hypoglycemia (including asymptomatic), patients (%) ([1]; N = 3195): (29.3) %
- Hypoglycemia, symptomatic, number of patients ([1]; N = 3195): 19
- Hypoglycemia, symptomatic, patients (%) ([1]; N = 3195): (7.4) %
- Influenza, number of patients ([1]; N = 3195): 15
- Influenza, patients (%) ([1]; N = 3195): (5.9) %
- Nasopharyngitis, number of patients ([1]; N = 3195): 29
- Nasopharyngitis, patients (%) ([1]; N = 3195): (11.3) %
- Nausea, number of patients ([1]; N = 3195): 24
- Nausea, patients (%) ([1]; N = 3195): (9.4) %
- Procedural pain, number of patients ([1]; N = 3195): 13
- Procedural pain, patients (%) ([1]; N = 3195): (5.1) %
- Urinary tract infection, number of patients ([1]; N = 3195): 23
- Urinary tract infection, patients (%) ([1]; N = 3195): (9.0) %
- AUC(0-inf) (in vivo [2]): 5210 ng·h/mL
- AUC(0-t) (in vivo [2]): 5210 ng·h/mL
- Cmax (in vivo [2]): 700 ng/mL
- Tmax (in vivo [2]): 0.5 h
- half-life (in vivo [2]; t1/2, Day 6, oral gavage 24 mg/kg/day for 6 days, not fasted, composite profiles): 4 h
- AUC(0-t) (in vivo [3]; po, 24 mg/kg/day): 4170 ng·h/mL
- Cmax (in vivo [3]; po, 24 mg/kg/day): 553 ng/mL
- AUC(0-t) (in vivo [3]; sc, 0.63 mg/kg/h): 3630 ng·h/mL
- Cmax (in vivo [3]; sc, 0.63 mg/kg/h): 213 ng/mL
- excess body weight lost ([4]; first phase 3 trial, based on a normal BMI of 25): about one-third
- average weight loss [4, 12]: 12.7 pounds
- average weight loss, of body weight [4, 12]: 5.8%
- average weight lost, of their weight ([4]; pivotal phase 3 clinical trial program): about 8%
- patients achieved at least 10% weight loss ([4]; pivotal phase 3 clinical trial program, treated for up to two years): over one-third
- average weight loss, top quartile of patients ([4]; second phase 3 trial): 35 pounds
- average weight loss, top quartile of patients, of body weight ([4]; second phase 3 trial): 16%
- development of FDA-defined valvulopathy (echocardiograms) ([4]; two-year treatment period): no apparent drug-related effect
- Css, 0 to 21 h [5]: 155 ng/mL
- Back pain, number of patients [6]: 201
- Back pain, patients (%) [6]: (6.3) %
- Constipation, number of patients [6]: 186
- Constipation, patients (%) [6]: (5.8) %
- Diarrhea, number of patients [6]: 207
- Diarrhea, patients (%) [6]: (6.5) %
- Dizziness, number of patients [6]: 270
- Dizziness, patients (%) [6]: (8.5) %
- Dry mouth, number of patients [6]: 169
- Dry mouth, patients (%) [6]: (5.3) %
- Fatigue, number of patients [6]: 229
- Fatigue, patients (%) [6]: (7.2) %
- Headache, number of patients [6]: 537
- Headache, patients (%) [6]: (16.8) %
- Nasopharyngitis, number of patients [6]: 414
- Nasopharyngitis, patients (%) [6]: (13.0) %
- Nausea, number of patients [6]: 264
- Nausea, patients (%) [6]: (8.3) %
- Upper respiratory tract infection, number of patients [6]: 439
- Upper respiratory tract infection, patients (%) [6]: (13.7) %
- Urinary tract infection, number of patients [6]: 207
- Urinary tract infection, patients (%) [6]: (6.5) %
- number of adverse events ([7]; after a high-fat breakfast): 6
- number of adverse events ([7]; fasted state): 18
- food effect on overall exposure ([7]; fed vs fasted): no food effect on overall exposure
- reduction of Cmax in the fed compared to fasted state ([7]; high-fat breakfast): approximately 10%
- time of maximum plasma concentrations, fed compared to fasted ([7]; high-fat breakfast): statistically significant delay
- logP (physchem): 2.56
- pKa (physchem): 9.53
- t1/2 (Day 6, oral gavage 24 mg/kg/day for 6 days, not fasted, composite profiles, 24 mg/kg/day): 4.02 h
- Css = AUC24 hr ÷ dosing interval (24 h) (calculated for the infusion rate of the chronic study): 213 ng/mL
- blood plasma ratio ([8]; blood and plasma, read-out: Blood to plasma concentration ratio): 1.3
- clearance ([8]; plasma): 326 mL/min
- Vd ([8]; plasma, read-out: Apparent volume of distribution): 307 L
- Cl [9]: 49.3 ± 4.83 mL/min/kg
- Css from 42 to 90 hours [9]: 340 ng/mL
- Kp (clinical): < 1
- depression leading to discontinuation ([10]; Compound 1 treated patients): 0.9%
- dizziness leading to discontinuation ([10]; Compound 1 treated patients): 0.7%
- headache leading to discontinuation ([10]; Compound 1 treated patients): 1.3%
- discontinuation rate due to adverse reaction ([10]; non-diabetic patients): 7.1%
- discontinuation rate due to adverse reaction ([10]; patients with type 2 diabetes): 8.6%
- Papp [11]: 3.54 ×10⁻⁶ cm/s

— patent US10226471B2, “Modified-release dosage forms of 5-HT2C agonists useful for weight management” (Arena Pharmaceuticals, Inc., priority 2010, dated 2019)
